In US7045532B2 (Millennium Pharmaceuticals, Inc., priority 1999, dated 2006):
Read-outs that look alike come from different tables or passages of the source.

Biological target: T1, ACE-2 (Homo sapiens, UniProt Q9BYF1)
T1 construct: a stop codon inserted after the serine immediately preceding the transmembrane domain; made in house; host or cells: CHO K1 cells (transient transfection, purified from conditioned medium)
Test: ACE-2 Competitive Substrate Assay (ACS Assay)
Format: biochemical

[1] = Ki class, compounds tested in 5% DMSO, 12 compound concentrations, Ki=Kiapp/(1+[S]/Km), read-out: Human ACE-2 Activity
[2] = Table 3, very good ACE-2 inhibiting compounds, species not given, read-out: ACE-2 Activity, Ki

T1 sequence (Q9BYF1 18-740 limits assumed): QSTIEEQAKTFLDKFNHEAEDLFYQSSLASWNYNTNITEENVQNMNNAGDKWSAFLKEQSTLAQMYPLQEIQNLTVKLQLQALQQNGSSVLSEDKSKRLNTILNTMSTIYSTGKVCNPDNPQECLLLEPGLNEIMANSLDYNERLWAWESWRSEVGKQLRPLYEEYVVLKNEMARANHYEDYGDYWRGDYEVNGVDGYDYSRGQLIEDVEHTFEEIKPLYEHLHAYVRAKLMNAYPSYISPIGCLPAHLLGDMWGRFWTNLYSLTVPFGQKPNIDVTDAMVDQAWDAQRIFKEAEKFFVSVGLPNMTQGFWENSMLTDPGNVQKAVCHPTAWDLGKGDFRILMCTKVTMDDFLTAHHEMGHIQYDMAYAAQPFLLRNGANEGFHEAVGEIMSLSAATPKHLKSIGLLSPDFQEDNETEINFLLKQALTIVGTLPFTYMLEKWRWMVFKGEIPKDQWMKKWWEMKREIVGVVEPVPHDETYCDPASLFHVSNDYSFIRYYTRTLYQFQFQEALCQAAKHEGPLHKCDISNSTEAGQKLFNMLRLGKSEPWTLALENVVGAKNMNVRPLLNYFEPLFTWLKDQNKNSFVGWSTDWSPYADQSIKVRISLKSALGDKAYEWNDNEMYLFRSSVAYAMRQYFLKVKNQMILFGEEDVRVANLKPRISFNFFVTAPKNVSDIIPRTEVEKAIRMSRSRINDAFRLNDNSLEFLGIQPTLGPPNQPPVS

Question: How did the Ki [1] turn out when `CC(C)C[C@H](N[C@@H](CNC(=O)c1ccc(Cl)c(Cl)c1)C(=O)O)C(=O)O` [LJ, (S,S)-2-[1-Carboxy-2-(3,4-dichloro-benzoylamino)-ethylamino]-4-methyl-pentanoic acid] was run?
Answer: > 500 nM

Question: With `COC(=O)[C@H](Cc1cccc(O)c1)N[C@@H](CC(C)C)C(=O)OCc1ccccc1` [LK, 2-[2-(3-Hydroxy-phenyl)-1-methoxycarbonyl-ethylamino]-4-methyl-pentanoic acidbenzyl ester] as the compound, how does the Ki [1] read?
Answer: > 500 nM

Question: How did the Ki [1] turn out when `COC(=O)[C@@H](Cc1cccc(O)c1)N[C@@H](CC(C)C)C(=O)OCc1ccccc1` [LL, 2-[2-(3-Hydroxy-phenyl)-1-methoxycarbonyl-ethylamino]-4-methyl-pentanoic acid benzylester] was run?
Answer: > 500 nM

Question: How did the Ki [1] turn out when `CC(C)C[C@H](N[C@@H](Cc1coc(-c2ccccc2)n1)C(=O)O)C(=O)O` [LM, (S,S)-2-[1-Carboxy-2-(2-phenyl-oxazol-4-yl)ethylamino]-4-methyl-pentanoic acid] was run?
Answer: > 500 nM

Question: With `CC(C)C[C@H](N[C@@H](Cc1coc(-c2cc(Cl)cc(Cl)c2)n1)C(=O)O)C(=O)O` [LN, (S,S)-2-{1-Carboxy-2-[2-(3,5-dichlorophenyl)-oxazol-4-yl]ethylamino}-4-methyl-pentanoic acid] as the compound, how does the Ki [1] read?
Answer: < 100 nM

Question: What about the Ki [2] of the same compound?
Answer: 50 to 100 nM

Question: How did the Ki [1] turn out when `CC(C)C[C@H](N[C@@H](Cc1csc(-c2cc(Cl)cc(Cl)c2)n1)C(=O)O)C(=O)O` [LO, (S,S)-2-{1-Carboxy-2-[2-(3,5-dichlorophenyl)-thiazol-4-yl]-ethylamino}-4-methyl-pentanoic acid] was run?
Answer: 100 to 500 nM

Question: Which results are given for `CC(C)C[C@H](N[C@@H](Cc1ccn(Cc2cc(Cl)cc(Cl)c2)n1)C(=O)O)C(=O)O` [LP, (S,S)-2-{1-carboxy-2-[1-(3,5-dichlorobenzyl)-1H-pyrazol-3-yl]-ethylamino}-4-methyl pentanoic acid]?
Answer: Ki [1]: < 100 nM; Ki [2]: < 50 nM

Question: For `CC(C)C[C@H](N[C@@H](Cc1cncn1Cc1cc(Cl)cc(Cl)c1)C(=O)OC1CCCC1)C(=O)O` [LQ, (S,S) 2-{1-Cyclopentyloxycarbonyl-2-[3-(3,5-dichloro-benzyl)-3H-imidazol-4-yl]-ethylamino}-4-methyl-pentanoic acid], which Ki [1] is on record?
Answer: > 500 nM

Question: How did the Ki [1] turn out when `CC(C)C[C@H](N[C@@H](CN1CCN(Cc2cc(F)cc(F)c2)C1=O)C(=O)O)C(=O)O` [LR, 2-[1-Carboxy-2-[3-(3,5-difluoro-benzyl)-2-oxo-imidazolidin-1-yl]-ethylamino]-4-methyl-pentanoic acid] was run?
Answer: 100 to 500 nM

Question: For `CC(C)C[C@H](N[C@@H](Cn1ccn(Cc2ccccc2)c1=O)C(=O)O)C(=O)O` [LS, 2-[2-(3-Benzyl-2-oxo-2,3-dihydro-imidazol-1-yl)-1-carboxy-ethylamino]-4-methyl-pentanoic acid], which Ki [1] is on record?
Answer: 100 to 500 nM

Question: Which Ki [1] does the source give for `CC(C)C[C@H](N[C@@H](Cc1ccc(OCCc2ccccc2)cc1)C(=O)O)C(=O)O` [LT, 2-[1-Carboxy-2-(4-phenethyloxy-phenyl)-ethylamino]-4-methyl-pentanoic acid] here?
Answer: 100 to 500 nM

Question: With `CC(C)C[C@H](N[C@@H](Cc1ccc(OC(C)(C)C)cc1)C(=O)O)C(=O)O` [LU, 2-[2-(4-tert-Butoxy-phenyl)-1-carboxy-ethylamino]-4-methyl-pentanoic acid] as the compound, how does the Ki [1] read?
Answer: > 500 nM

Question: `CC(C)C[C@H](N[C@@H](Cc1ccc(OCc2ccncc2)cc1)C(=O)O)C(=O)O` [LV, 2-[1-Carboxy-2-[4-(pyridin4-ylmethoxy)-phenyl]-ethylamino]-4-methyl-pentanoic acid] was tested. Which Ki [1] did it give?
Answer: < 100 nM

Question: And the Ki [2]?
Answer: 50 to 100 nM

Question: `C=CCOc1ccc(C[C@H](N[C@@H](CC(C)C)C(=O)O)C(=O)O)cc1` [LW, 2-[2-(4-Allyloxy-phenyl)-1-carboxy-ethylamino]-4-methyl-pentanoic acid] was tested. Which Ki [1] did it give?
Answer: < 100 nM

Question: And the Ki [2]?
Answer: 50 to 100 nM

Question: For `CC(C)C[C@H](N[C@@H](Cc1ccc(OCc2cccnc2)cc1)C(=O)O)C(=O)O` [LX, S,S-2-{1-Carboxy-2-[4-(pyridin-3-ylmethoxy)-phenyl]-ethylamino}-4-methyl pentanoic acid], which Ki [1] is on record?
Answer: 100 to 500 nM

Question: With `Cc1ccc(-c2cccc(C[C@H](N[C@@H](CC(C)C)C(=O)O)C(=O)O)c2)cc1` [LY, (S,S)-2-[1-Carboxy-2-(4′-methyl-biphenyl-3-yl)-ethylamino]-4-methyl-pentanoic acid] as the compound, how does the Ki [1] read?
Answer: > 500 nM

Question: How did the Ki [1] turn out when `COc1cccc(C(=O)NC[C@H](N[C@@H](CC(C)C)C(=O)O)C(=O)O)c1` [LZ, 2-[1-Carboxy-2-(3-methoxy-benzoylamino)-ethylamino]-4-methyl-pentanoic acid] was run?
Answer: 100 to 500 nM

Question: For `C[C@@H](N[C@@H](CCCN)C(=O)O)C(=O)O` [M, 5-Amino-2-(1-carboxy-ethylamino)-pentanoicacid], which Ki (Ki class, compounds tested in 5% DMSO, 12 concentrations, read-out: Human ACE-2 Activity) is on record?
Answer: > 500 nM

Question: Which Ki [1] does the source give for `CC(C)C[C@H](N[C@@H](CC(=O)Nc1nc2ccc(Cl)cc2s1)C(=O)O)C(=O)O` [MB, (S,S)-2-[1-Carboxy-2-(6-chloro-benzothiazol-2-ylcarbamoyl)-ethylamino]-4-methyl-pentanoic acid] here?
Answer: < 100 nM

Question: And the Ki [2]?
Answer: < 50 nM

Question: `Cc1cc2nc(NC(=O)C[C@H](N[C@@H](CC(C)C)C(=O)O)C(=O)O)sc2cc1C` [MC, (S,S)-2-[1-Carboxy-2-(5,6-dimethyl-benzothiazol-2-ylcarbamoyl)-ethylamino]-4-methyl-pentanoic acid] was tested. Which Ki [1] did it give?
Answer: > 500 nM

Question: Which results are given for `CC(C)C[C@H](N[C@@H](CC(=O)Nc1nc2c(Cl)cccc2s1)C(=O)O)C(=O)O` [MD, (S,S)-2-[1-Carboxy-2-(4-chloro-benzothiazol-2-ylcarbamoyl)-ethylamino]-4-methyl-pentanoic acid]?
Answer: Ki [1]: < 100 nM; Ki [2]: < 50 nM

Question: `CC(C)C[C@H](N[C@@H](Cn1ccn(CCC2CCCCC2)c1=O)C(=O)O)C(=O)O` [ME, (S,S)-2-{1-Carboxy-2-[3-(2-cyclohexyl-ethyl)-2-oxo-2,3-dihydro-imidazol-1-yl]-ethylamino}-4-methyl-pentanoic acid] was tested. Which Ki [1] did it give?
Answer: 100 to 500 nM

Question: How did the Ki [1] turn out when `CC(C)C[C@H](N[C@@H](Cn1ccn([C@H](C)c2ccccc2)c1=O)C(=O)O)C(=O)O` [MF, 2-[1-Carboxy-2-[2-oxo-3-(1-phenyl-ethyl)-2,3-dihydro-imidazol-1-yl]-ethylamino]-4-methyl-pentanoic acid] was run?
Answer: > 500 nM

Question: With `CC(C)C[C@H](N[C@@H](CC(=O)Nc1nc2cc(Cl)c(Cl)cc2s1)C(=O)O)C(=O)O` [MG, (S,S)-2-[1-Carboxy-2-(5,6-dichloro-benzothiazol-2-ylcarbamoyl)-ethylamino]-4-methyl-pentanoic acid] as the compound, how does the Ki [1] read?
Answer: 100 to 500 nM

Question: How did the Ki [1] turn out when `CC(C)C[C@H](N[C@@H](Cn1ccn(CC2CC2)c1=O)C(=O)O)C(=O)O` [MH, 2-[1-Carboxy-2-(3-cyclopropylmethyl-2-oxo-2,3-dihydro-imidazol-1-yl)-ethylamino]-4-methyl-pentanoic acid] was run?
Answer: 100 to 500 nM

Question: `CC(C)C[C@H](N[C@@H](Cc1cccc(-c2cc(Cl)cc(Cl)c2)c1)C(=O)O)C(=O)O` [MI, (S,S)-2-[1-Carboxy-2-(3,′5′-dichloro-biphenyl-3-yl)-ethylamino]-4-methyl-pentanoic acid] was tested. Which Ki [1] did it give?
Answer: 100 to 500 nM

Question: How did the Ki [1] turn out when `CC(C)C[C@H](N[C@@H](Cc1cccc(-c2ccsc2)c1)C(=O)O)C(=O)O` [MJ, (S,S)-2-[1-Carboxy-2-(3-thiophen-3-yl-phenyl)-ethylamino]-4-methyl-pentanoic acid] was run?
Answer: > 500 nM

Question: Which Ki [1] does the source give for `COc1cc(OC)cc(-c2cccc(C[C@H](N[C@@H](CC(C)C)C(=O)O)C(=O)O)c2)c1` [MK, (S,S)-2-[1-Carboxy-2-(3′,5′-dimethoxy-biphenyl-3-yl)-ethylamino]-4-methyl-pentanoic acid] here?
Answer: > 500 nM

Question: For `COC(=O)[C@H](Cc1ccn(C(=O)OC(C)(C)C)n1)N[C@@H](CC(C)C)C(=O)OCc1ccccc1` [ML, 3-[2-(1-Benzyloxycarbonyl3-methyl-butylamino)-2-methoxycarbonyl-ethyl]-pyrazole-1-carboxylicacid tert-butyl ester], which Ki [1] is on record?
Answer: > 500 nM

Question: Which Ki [1] does the source give for `COC(=O)[C@H](Cc1cncn1Cc1cc(Cl)cc(Cl)c1)N[C@@H](CC(C)C)C(=O)OC` [MM, 2-{2-[3-(3,5-Dichloro-benzyl)-3H-imidazol-4-yl]-1-methoxycarbonyl-ethylamino}-4-methyl-pentanoic acidmethyl ester] here?
Answer: < 100 nM

Question: And the Ki [2]?
Answer: < 50 nM

Question: How did the Ki [1] turn out when `CC(C)C[C@H](N[C@@H](Cn1ccn(C2CCCCC2)c1=O)C(=O)O)C(=O)O` [MN, 2-[1-Carboxy-2-(3-cyclohexyl-2-oxo-2,3-dihydro-imidazol-1-yl)-ethylamino]-4-methyl-pentanoic acid] was run?
Answer: 100 to 500 nM

Question: For `COc1ccc2nc(NC(=O)C[C@H](N[C@@H](CC(C)C)C(=O)O)C(=O)O)sc2c1` [MO, (S,S)-2-[1-Carboxy-2-(6-methoxy-benzothiazol-2-ylcarbamoyl)-ethylamino]-4-methyl-pentanoic acid], which Ki [1] is on record?
Answer: 100 to 500 nM

Question: How did the Ki [1] turn out when `CCOc1ccc2nc(NC(=O)C[C@H](N[C@@H](CC(C)C)C(=O)O)C(=O)O)sc2c1` [MP, (S,S)-2-[1-Carboxy-2-(6-ethoxy-benzothiazol-2-ylcarbamoyl)-ethylamino]-4-methyl-pentanoic acid] was run?
Answer: 100 to 500 nM

Question: With `CC(C)C[C@H](N[C@@H](CC(=O)Nc1nc2ccc(F)cc2s1)C(=O)O)C(=O)O` [MQ, 2-[1-Carboxy-2-(6-fluoro-benzothiazol-2-ylcarbamoyl)-ethylamino]-4-methyl-pentanoic acid] as the compound, how does the Ki [1] read?
Answer: < 100 nM

Question: What about the Ki [2] of the same compound?
Answer: < 50 nM

Question: `CC(C)C[C@H](N[C@@H](CC(=O)Nc1nc2ccc(Br)cc2s1)C(=O)O)C(=O)O` [MR, 2-[2-(6-Bromo-benzothiazol-2-ylcarbamoyl]-1-carboxy-ethylamino]-4-methyl-pentanoic acid] was tested. Which Ki [1] did it give?
Answer: < 100 nM

Question: And the Ki [2]?
Answer: < 50 nM

Question: `CC(C)C[C@H](N[C@@H](Cn1ccn(-c2cc(F)cc(F)c2)c1=O)C(=O)O)C(=O)O` [MS, 2-{1-Carboxy-2-[3-(3,5-difluoro-phenyl)-2-oxo-2,3-dihydro-imidazol-1-yl]-ethylamino}-4-methyl-pentanoic acid] was tested. Which Ki [1] did it give?
Answer: 100 to 500 nM

Question: With `CC(C)C[C@H](N[C@@H](CNC(=O)c1ccc2ccccc2c1)C(=O)O)C(=O)O` [MT, 2-(1-Carboxy-2-[(naphthalene-2-carbonyl)amino]-ethylamino)-4-methyl-pentanoic acid] as the compound, how does the Ki [1] read?
Answer: > 500 nM

Question: How did the Ki [1] turn out when `CC(C)C[C@H](N[C@@H](CNS(=O)(=O)c1ccc2ccccc2c1)C(=O)O)C(=O)O` [MU, 2-[1-Carboxy-2-(naphthalene-2-sulfonylamino)-ethylamino]-4-methyl-pentanoic acid] was run?
Answer: > 500 nM
